From PMC7377239, “Cardiovascular Effects of Polychlorinated Biphenyls and Their Major Metabolites” (Environmental Health Perspectives, 2020)
Read-outs that look alike come from different tables or passages of the source.

What was measured:
[1] = tested on: iCell endothelial cells (human iPSC-derived ECs); assay: Tube formation (tubulogenesis) assay in iCell endothelial cells, 18 h; format: cell-based; details: Homo sapiens, Endothelial cell, iPSC-EC; for activity at 0.1 µM: 0.10 µM; for minimal effective concentration: 100.00 = highest concentration tested
Description: (§1) The culture conditions of iCell®-endothelial cells were as reported elsewhere ([Iwata et al. 2017]). Briefly, T75 flasks were coated with a fibronectin solution ( 3 μg/cm^2 ) followed by incubation for 1–2 h. Cells were thawed for 3 min in a 37°C water bath. Thawed cells were added to maintenance medium made of VascuLife VEGF Medium Complete Kit, excluding the supplied FBS, and iCell® Endothelial Cells Medium Supplement. The final formulation of the maintenance medium is detailed in ([Iwata et al. 2017]). The aliquoted fibronectin solution was aspirated from the T75 flasks, and cells were seeded at 1.0×10^4 cells/cm^2 . Cells were maintained at 37°C and 5% CO2 with media changes occurring every 2 d and passaged every 3–4 d using TrypLE™ Express. All experiments were conducted on cells between passages 1 and 5.
Tube formation assays were performed on Geltrex™ LDEV-free reduced growth factor basement membrane using both iCell®-endothelial cells and HUVECs in 384-well format exactly as detailed in Iwata et al. ([2017]). Negative controls included media-only and vehicle control (i.e., 0.5% vol/vol DMSO in cell culture media) wells. Positive assay controls were consistent with previously published reports ([Iwata et al. 2017]) and included TAB ( 50μM ) as a cytotoxic control, and nocodazole ( 0.01–1μM ), suramin ( 0.5–50μM ), histamine ( 0.1–100μM ), and chloroquine ( 1–500μM ) as chemicals associated with specific effects on ECs. Each test chemical was screened in triplicate for each concentration. Briefly, for iCell®-endothelial cells, starvation media consisted of VascuLife® basal medium with 4 mM L-glutamine LifeFactor and 0.1% iCell®-endothelial cells medium supplement. To counter dilution effects, a 2× concentration of the HUVEC maintenance medium supplemented with additional VEGF was created (EGM™-2 BulletKits™ at 2× concentration; also the VEGF component was replaced with 12.5 ng/mL VEGF). Geltrex™ LDEV-free reduced growth factor basement membrane was thawed overnight and dispensed into 384-well plates ( 10μL/well ) with tapping and rotating to evenly coat. The plates were incubated for 1 h in a cell culture incubator at 37°C and 5% CO2 . A 2× PCB plate (containing all of the PCBs and metabolites in dose–response) was prepared in basal media and added, 25μL per well, to the Geltrex™ coated plates. On separate plates, cells were seeded 7,500 (iPSC- ECs) or 3,500 (HUVEC) cells/well. Cells were exposed to chemicals overnight at 37°C and 5% CO2 and stained with 3× concentration of calcein AM ( 25μL /well, 6μmol/L ) for 15 min before imaging. Images were captured at 4× magnification with the FITC filter (calcein AM). Images were analyzed with the angiogenesis module software within MetaXpress™ (Molecular Devices).
(§2) Phenotypic responses were quantitatively assessed using concentration–response modeling as detailed elsewhere ([Sirenko et al. 2017]). Briefly, phenotypic readouts were normalized to vehicle controls and fit to a four-parameter logistic model in R studio software (version 3.1.1; R Development Core Team). Following EPA guidance on dose–response modeling, a cutoff of one standard deviation across means of vehicle control (i.e., 0.5% vol/vol DMSO in cell culture media) wells was applied to determine the point-of-departure (POD) values ([U.S. EPA 2012]). In the absence of a concentration–response, the highest tested concentration (i.e., 100μM ) was assigned as “no observable adverse effect level.” The concentration–response assessment R script, as well as templates for vehicle and concentration–response data, are available as a supplement to Sirenko et al. ([2017]). The ability of physicochemical properties to predict differences in PODs were evaluated by multiregression and mixed-effects modeling using R.

[2] = tested on: iCell endothelial cells (human iPSC-derived ECs); assay: High-content imaging cytotoxicity in iCell endothelial cells, 24 h; format: cell-based; details: Homo sapiens, Endothelial cell, iPSC-EC; for viability at 0.1 µM / activity at 0.1 µM: 0.10 µM; for minimal effective concentration: 100.00 = highest concentration tested
Description: as §1
Cytotoxicity was assessed in parallel experiments. For iCell®-endothelial cells, 384-well plates were coated with a 30μg/mL fibronectin solution ( 10μL/well ) and incubated for 2 h at RT. iCell®-endothelial cells were dissociated with TrypLE™ Express and prepared into a solution to achieve 750 cells per well and 50μL of total volume. The fibronectin solution was removed from the 384-well plate, and cells were plated. For HUVECs, similar dissociation and the same cell density were used for plating with the exclusion of the fibronectin solution. Cells were incubated at 37°C and 5% CO2 until a monolayer was formed, typically 3–5 d. 2×PCB plates were created with the requisite maintenance medium. Before treatment, the medium in the wells was exchanged to 25μL/well of fresh maintenance medium. 2×PCB chemical solutions ( […] ) were added. After 24 h incubation at 37°C and 5% CO2 , cells were stained with Hoechst 33342, MitoTracker™ Orange, and calcein AM for 20 min before replacing the staining media with FluoroBright DMEM. Cell culture plates were imaged using the ImageXpress® Micro Confocal high-content imaging system (Molecular Devices). Images were acquired at 10× magnification with DAPI, TRITC, or FITC filter (Hoechst 33342, MitoTracker™, or calcein AM, respectively). The multiwavelength cell scoring applications module in MetaXpress™ (Molecular Devices) was used to analyze the images.
as §2

[3] = 0.00 µM = 100.00, read-out: endo.mtl.18hr
[4] = 0.00 µM = 100.00, read-out: endo.tlps.18hr
[5] = 0.00 µM = 100.00, read-out: endo.tta.18hr
[6] = 0.00 µM = 100.00, read-out: endo.ttl.18hr
[7] = 0.00 µM = 100.00, read-out: endo.cyto.24hr
[8] = 0.00 µM = 100.00, read-out: endo.mito.24hr
[9] = 0.00 µM = 100.00, read-out: endo.mitoint.24hr
[10] = 0.00 µM = 100.00, read-out: endo.nma.24hr
[11] = 0.00 µM = 100.00, read-out: endo.tc.24hrs

Compound: Clc1ccc(Cl)c(-c2c(Cl)ccc(Cl)c2Cl)c1 [PCB95]
- activity at 0.01 µM [1, 3]: 111%
- activity at 0.01 µM [1, 4]: 84.5%
- activity at 0.01 µM [1, 5]: 111%
- activity at 0.01 µM [1, 6]: 116%
- activity at 0.1 µM [1, 3]: 103%
- activity at 0.1 µM [1, 4]: 85.8%
- activity at 0.1 µM [1, 5]: 99%
- activity at 0.1 µM [1, 6]: 106%
- activity at 1 µM [1, 3]: 108%
- activity at 1 µM [1, 4]: 115%
- activity at 1 µM [1, 5]: 97.2%
- activity at 1 µM [1, 6]: 104%
- activity at 10 µM [1, 3]: 109%
- activity at 10 µM [1, 4]: 119%
- activity at 10 µM [1, 5]: 113%
- activity at 10 µM [1, 6]: 123%
- activity at 100 µM [1, 3]: 47%
- activity at 100 µM [1, 4]: 16%
- activity at 100 µM [1, 5]: 8.76%
- activity at 100 µM [1, 6]: 11%
- minimal effective concentration ([1]; read-out: endo.mtl.18hr POD): 48.6 µM
- minimal effective concentration ([1]; read-out: endo.tlps.18hr POD): 53.9 µM
- minimal effective concentration ([1]; read-out: endo.tta.18hr POD): 48.7 µM
- minimal effective concentration ([1]; read-out: endo.ttl.18hr POD): 55.7 µM
- viability at 0.01 µM [2, 7]: 96.8%
- activity at 0.01 µM [2, 8]: 96.7%
- activity at 0.01 µM [2, 9]: 93.2%
- activity at 0.01 µM [2, 10]: 103%
- viability at 0.01 µM [2, 11]: 96.8%
- viability at 0.1 µM [2, 7]: 102%
- activity at 0.1 µM [2, 8]: 102%
- activity at 0.1 µM [2, 9]: 87.2%
- activity at 0.1 µM [2, 10]: 104%
- viability at 0.1 µM [2, 11]: 102%
- viability at 1 µM [2, 7]: 105%
- activity at 1 µM [2, 8]: 106%
- activity at 1 µM [2, 9]: 84.4%
- activity at 1 µM [2, 10]: 98.6%
- viability at 1 µM [2, 11]: 105%
- viability at 10 µM [2, 7]: 104%
- activity at 10 µM [2, 8]: 104%
- activity at 10 µM [2, 9]: 93.9%
- activity at 10 µM [2, 10]: 100%
- viability at 10 µM [2, 11]: 104%
- viability at 100 µM [2, 7]: 102%
- activity at 100 µM [2, 8]: 103%
- activity at 100 µM [2, 9]: 93.6%
- activity at 100 µM [2, 10]: 97.4%
- viability at 100 µM [2, 11]: 102%
- minimal effective concentration ([2]; read-out: endo.cyto.24hr POD): 100 µM
- minimal effective concentration ([2]; read-out: endo.mito.24hr POD): 100 µM
- minimal effective concentration ([2]; read-out: endo.mitoint.24hr POD): 100 µM
- minimal effective concentration ([2]; read-out: endo.nma.24hr POD): 100 µM
- minimal effective concentration ([2]; read-out: endo.tc.24hrs POD): 100 µM
